Test results: patent US9920074B2 (ACEA BIOSCIENCES INC., priority 2013, dated 2018)
Entries after “also recorded” stand apart in the source; their conditions may differ. Like-named read-outs stand apart in the source and are kept apart here.

What was measured:
Assay type in all cases: cell-based
[1] = target: T1, Btk (Tyr223) phosphorylation in Ramos cells (Homo sapiens, UniProt Q06187); experiment: Btk Tyr223 phosphorylation inhibition, western blotting assay (Example 72)
T1 construct: endogenous in cells; host or cells: Ramos cells (ATCC)
T1 sequence (Q06187 whole entry): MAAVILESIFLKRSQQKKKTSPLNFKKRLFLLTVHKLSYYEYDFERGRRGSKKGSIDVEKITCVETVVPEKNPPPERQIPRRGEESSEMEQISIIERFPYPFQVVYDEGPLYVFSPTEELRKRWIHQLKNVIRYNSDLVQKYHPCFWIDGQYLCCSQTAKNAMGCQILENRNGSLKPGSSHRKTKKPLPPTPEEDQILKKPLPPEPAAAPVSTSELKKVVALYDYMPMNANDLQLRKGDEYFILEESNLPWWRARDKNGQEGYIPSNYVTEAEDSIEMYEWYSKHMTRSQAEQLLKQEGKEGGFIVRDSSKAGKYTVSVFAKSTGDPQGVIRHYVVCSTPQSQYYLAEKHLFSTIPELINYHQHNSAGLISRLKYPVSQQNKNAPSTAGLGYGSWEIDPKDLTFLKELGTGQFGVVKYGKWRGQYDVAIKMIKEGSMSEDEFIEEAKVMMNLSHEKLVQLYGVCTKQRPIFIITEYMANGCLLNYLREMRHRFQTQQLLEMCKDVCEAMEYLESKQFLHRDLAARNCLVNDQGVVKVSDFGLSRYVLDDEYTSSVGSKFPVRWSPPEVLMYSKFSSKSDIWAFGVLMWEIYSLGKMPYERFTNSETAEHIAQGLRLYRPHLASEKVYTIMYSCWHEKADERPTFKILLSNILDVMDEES
Protocol: Ramos cell line was obtained from the American Type Culture Collection and was maintained at 37° C. with 5% CO2, in media supplemented with 10% fetal bovine serum, penicillin (100 units/mL) and streptomycin (100 μg/mL), Goat F(ab′)2 Anti-Human IgM-UNLB was obtained from SouthernBiotech.
Ramos cells were treated with compounds at indicated doses for 45 min at room temperature, followed by stimulation of 12 μg/mL of IgM for 30 min, and then lysed. Western blots were performed on the cell lysate using Phospho-Btk (Tyr223), Phospho-Btk (Tyr551), Btk, Phospho-PLCγ2 (Tyr1217), PLCγ2, Phospho-p44/42 MAPK (Erk1/2) (Thr202/Tyr204) and p44/42 MAPK (Erk1/2) antibodies (Cell Signaling Technology). The density of blotting band was acquired using ImageJ software, and the IC50 of Btk (Tyr223) phosphorylation was fitted using a non-linear regression model by GraphPad Prism version 4.0.

[2] = system: Stat5 phosphorylation in NK-92 cells; experiment: Western blotting assay for Stat5; conditions: NK92, 1 hour, IL-2 stimulation, read-out: Stat5 inhibition
How it was run: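 NK-92 cells, maintained with IL-2, were pre-treated with compound for 1 h, then stimulated with IL-2 for 15 min. Lysates were western blotted for phospho- and total Jak3 and Stat5. IC50 came from densitometry of phospho-band intensity.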

[3] = target: T2, Btk phosphorylation in Ramos cells (Homo sapiens, UniProt Q06187); experiment: Pulse chase western blotting assay for irreversibility / binding property; conditions: 100 nM for 45 mins, monitored 4, 6 and 8 h post removal
T2 construct: endogenous in cells; host or cells: Ramos cells (ATCC)
T2 sequence (Q06187 whole entry): as above
Protocol: Ramos cells were treated with Compound I-1 at 100 nM for 45 min. Cells were then re-suspended in compound free media and stimulated with 6 μg/ml IgM at 0, 4, 6 or 8 hours after compound removal. Cells were then lysed after 30 mm IgM stimulation. West blotting analysis were then performed.
Ramos cells were treated with Compounds at 100 nM for 45 min. Cells were then re-suspended in compound free media and stimulated with 6 μg/ml anti-IgM at 0, 4, 6 or 8 hours after compound removal. Cells were then lysed after 30 mm anti-IgM stimulation. Western blotting analysis was then performed.

[4] = target: T1, Btk (Tyr223) phosphorylation in Ramos cells; experiment: Western blotting assay for Btk (Example 73); conditions: 45 min, 6 μg/mL anti-IgM, read-out: Btk Inhibition
How it was run: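 Ramos cells pre-treated with compound for 45 min at room temperature, then stimulated with 6 μg/mL anti-IgM for 30 min and lysed. Phospho-Btk (Tyr223) measured by Western blot band densitometry; IC50 fitted by non-linear regression.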

[5] = target: T3, free Btk protein from Ramos cells (Homo sapiens, UniProt Q06187); experiment: Btk target site occupancy ELISA assay; conditions: for IC50: ELISA
T3 construct: endogenous in cells; host or cells: Ramos cells (ATCC)
T3 sequence (Q06187 whole entry): as above
Protocol: (§1) Ramos cells were treated with Compound I-1 at indicated concentrations for 1 h, followed by stimulation with 6 μg/mL of IgM for 30 mm, and then lysed. Lysates were incubated with Compound I-21 (biotin labeled) at a final concentration of 1 μM in a PBS, 0.05% Tween-20, 1% BSA solution while shaking for 1 h at room temperature. Samples were transferred to a streptavidin-coated 96-well ELISA plate and mixed while shaking for 1 h at room temperature. The Btk antibody (BD 611116, 1:1000 dilution in PBS+0.05% Tween-20+0.5% BSA) was then applied and incubated for 1 h at room temperature. After wash, goat anti-mouse-HRP (Pierce 31432, 1:1000 dilution in PBS+0.05% Tween-20+0.5% BSA) was added and incubated for 1 h at room temperature. The ELISA was developed with addition of tetramethyl benzidine (TMB) followed by Stop Solution and read at OD 450 nm.
as §1, with “Compounds” for “Compound I-1”, “anti-IgM” for “IgM”, “diluted” for “dilution”, “tetramethylbenzidine” for “tetramethyl benzidine”

`C=CC(=O)Nc1cccc(Oc2nc(Nc3ccc(N4CCN(C)CC4)cc3)ncc2OC)c1` [Compound I-1, N-(3-(5-methoxy-2-(4-(4-methylpiperazin-1-yl)phenylamino)pyrimidin-4-yloxy)phenyl)acrylamide] was tested, and the IC50 ([1]; Btk Tyr223 phosphorylation, 45 min, 12 μg/mL IgM, read-out: BTK Inhibition) was < 10 nM, the IC50 ([1]; treated 45 mins, read-out: inhibition IC50 of the phosphorylation of BTK protein) was 1.1 nM and the “reduction of the Btk Tyr223 phosphorylation in Ramos cells” value ([1]; western blot) was “reduction of the Btk Tyr223 phosphorylation; also recorded: dose-dependent inhibition of the BTK phosphorylation”. For the same molecule, the IC50 [2] was ≥ 400 nM, the “inhibition of BTK phosphorylation after compound removal (irreversibility)” value [3] was “remains inhibited up to 8 his; also recorded: long term effect of the inhibition was observed after compounds removal up to 8 hours; also recorded: remains inhibited up to 8 hrs; also recorded: irreversibly inhibited the BTK phosphorylation; also recorded: inhibited the Btk phosphorylation in Ramos cells after 8 hours of removal” and the IC50 [4] was ≤ 10 nM. The IC50 ([5]; 1 h, read-out: Btk Occupancy Assay (IC50)) was ≤ 10 nM, the “OD 450 (average)” value ([5]; Compound I-1 0.2 nM) was 0.1686 and the “free Btk” value ([5]; Compound I-1 0.2 nM) was 2414 pg. For the same molecule, the “OD 450 (average)” value ([5]; Compound I-1 0.7 nM) was 0.1811, the “free Btk” value ([5]; Compound I-1 0.7 nM) was 2592 pg and the “OD 450 (average)” value ([5]; Compound I-1 3 nM) was 0.1219. The “free Btk” value ([5]; Compound I-1 3 nM) was 1747 pg, the “OD 450 (average)” value ([5]; Compound I-1 12 nM) was −0.0161 and the “free Btk” value ([5]; Compound I-1 12 nM) was -224 pg. The “OD 450 (average)” value ([5]; Compound I-1 47 nM) was 0.0114, the “free Btk” value ([5]; Compound I-1 47 nM) was 168 pg and the “OD 450 (average)” value ([5]; Compound I-1 188 nM) was −0.0207. The “free Btk” value ([5]; Compound I-1 188 nM) was -290 pg, the “OD 450 (average)” value ([5]; Compound I-1 750 nM) was −0.0456 and the “free Btk” value ([5]; Compound I-1 750 nM) was -646 pg. The “OD 450 (average)” value ([5]; Compound I-1 3000 nM) was −0.0487, the “free Btk” value ([5]; Compound I-1 3000 nM) was -689 pg and the IC50 ([5]; read-out: BTK target site occupancy IC50) was 0.5 nM. The “occupancy of the Btk proteins” value ([5]; increasing concentrations) was “dose-dependent occupancy of the BTK proteins correlates with its inhibitory activity of BTK kinase”.
